Reference: paper PMC7587962, “Evaluation of Cytotoxicity and α-Glucosidase Inhibitory Activity of Amide and Polyamino-Derivatives of Lupane Triterpenoids” (Molecules, 2020)
Like-named read-outs stand apart in the source and are kept apart here.

Columns and labels:
COLO 205 = tested on: COLO 205; design: method as in PMID 25405285; conditions: standard drugs used by NCI as control; cited from earlier work
T-47D [1] = tested on: T-47D; design: method as in PMID 25405285; conditions: standard drugs used by NCI as control; cited from earlier work
SF-539 = tested on: SF-539; design: method as in PMID 25405285; conditions: standard drugs used by NCI as control; cited from earlier work
NCI-H522 = assay: NCI-60 SRB screen: non-small cell lung cancer NCI-H522; format: cell-based, human; conditions: NCI-H522
SK-MEL-28 = assay: NCI-60 SRB screen: melanoma SK-MEL-28; format: cell-based, human; conditions: SK-MEL-28
OVCAR-3 = assay: NCI-60 SRB screen: ovarian cancer OVCAR-3; format: cell-based, human; conditions: OVCAR-3
K-562 = assay: NCI-60 SRB screen: leukemia K-562; format: cell-based, human; conditions: K-562
786-0 = assay: NCI-60 SRB screen: renal cancer 786-0; format: cell-based, human; conditions: 786-0
OVCAR-5 = assay: NCI-60 SRB screen: ovarian cancer OVCAR-5; format: cell-based, human; conditions: OVCAR-5
Prostate cancer subpanel = assay: NCI-60 screen, subpanel Prostate cancer
SNB-75 = assay: NCI-60 SRB screen: CNS cancer SNB-75; format: cell-based, human; conditions: SNB-75
NCI-H23 = assay: NCI-60 SRB screen: non-small cell lung cancer NCI-H23; format: cell-based, human; conditions: NCI-H23
NCI-H226 = assay: NCI-60 SRB screen: non-small cell lung cancer NCI-H226; format: cell-based, human; conditions: NCI-H226
T-47D [2] = assay: NCI-60 SRB screen: breast cancer T-47D; format: cell-based, human; conditions: T-47D
HCT-116 = assay: NCI-60 SRB screen: colon cancer HCT-116; format: cell-based; conditions: Homo sapiens, 48 h, HCT-116
EKVX = assay: NCI-60 SRB screen: non-small cell lung cancer EKVX; format: cell-based, human
MDA-MB-231/ATCC = assay: NCI-60 SRB screen: breast cancer MDA-MB-231/ATCC; format: cell-based; conditions: Homo sapiens, 48 h
OVCAR-4 = assay: NCI-60 SRB screen: ovarian cancer OVCAR-4; format: cell-based; conditions: Homo sapiens; OVCAR-4; five concentrations, 48 h, SRB; read-out: GI50
Melanoma subpanel = assay: NCI-60 screen, subpanel Melanoma
CCRF-CEM = assay: NCI-60 SRB screen: leukemia CCRF-CEM; format: cell-based; conditions: Homo sapiens, 48 h
HOP-62 = assay: NCI-60 SRB screen: non-small cell lung cancer HOP-62; format: cell-based, human; conditions: HOP-62
RPMI-8226 = assay: NCI-60 SRB screen: leukemia RPMI-8226; format: cell-based; conditions: Homo sapiens, 48 h, RPMI-8226
A498 = assay: NCI-60 SRB screen: renal cancer A498; format: cell-based, human; conditions: A498
PC-3 = assay: NCI-60 SRB screen: prostate cancer PC-3; format: cell-based, human; conditions: PC-3
U251 = assay: NCI-60 SRB screen: CNS cancer U251; format: cell-based; conditions: Homo sapiens, U251
HOP-92 = assay: NCI-60 SRB screen: non-small cell lung cancer HOP-92; format: cell-based, human; conditions: HOP-92
SN12C = assay: NCI-60 SRB screen: renal cancer SN12C; format: cell-based, human
Ovarian Cancer subpanel = assay: NCI-60 screen, subpanel Ovarian Cancer
DU-145 = assay: NCI-60 SRB screen: prostate cancer DU-145; format: cell-based, human; conditions: DU-145
SK-MEL-5 = assay: NCI-60 SRB screen: melanoma SK-MEL-5; format: cell-based, human; conditions: SK-MEL-5
MOLT-4 = assay: NCI-60 SRB screen: leukemia MOLT-4; format: cell-based; conditions: Homo sapiens, 48 h, MOLT-4
HCC-2998 = assay: NCI-60 SRB screen: colon cancer HCC-2998; format: cell-based, human; conditions: HCC-2998
NCI/ADR-RES = assay: NCI-60 SRB screen: ovarian cancer NCI/ADR-RES; format: cell-based, human
SW-620 = assay: NCI-60 SRB screen: colon cancer SW-620; format: cell-based; conditions: Homo sapiens, 48 h, SW-620
[3] = tested on: 60 human tumor cell lines; assay: cells
Leukemia subpanel = assay: NCI-60 screen, subpanel Leukemia
MDA-MB-435 = assay: NCI-60 SRB screen: melanoma MDA-MB-435; format: cell-based, human; conditions: MDA-MB-435
[4] = Homo sapiens, five concentrations, 48 h, SRB, read-out: GI50
[5] = single dose 10 µM, read-out: Percentage Cell Growth
[6] = five concentrations, SRB, read-out: GI50

For `COc1cccc2c1C(=O)c1c(O)c3c(c(O)c1C2=O)C[C@@](O)(C(=O)CO)C[C@@H]3O[C@H]1C[C@H](N)[C@H](O)[C@H](C)O1` [DRB, doxorubicin], the GI50 (COLO 205) is listed as 180 nM, the GI50 (T-47D [1]) is listed as 60 nM and the GI50 (SF-539) is listed as 120 nM.
In the case of `C=C(C)[C@@H]1CC[C@]2(C(=O)OC)CC[C@]3(C)[C@H](CC[C@@H]4[C@@]5(C)CCC(=NOCCC(=NOCCC#N)NCCC#N)C(C)(C)[C@@H]5CC[C@]43C)[C@@H]12` [Compound 21], the GI50 (NCI-H522; [4]) is reported as 8.34 µM, the “Percentage Cell Growth” value (NCI-H522; single dose 10 µM) is reported as 13.36% and the GI50 (SK-MEL-28; [4]) is reported as 17.1 µM. The “Percentage Cell Growth” value (SK-MEL-28; single dose 10 µM) was 29.25%, the GI50 (OVCAR-3; [4]) was 5.17 µM and the “Percentage Cell Growth” value (OVCAR-3; single dose 10 µM) was −34.55%. For the same compound, the GI50 (K-562; Homo sapiens, K562, five concentrations, 48 h, SRB, read-out: GI50) was 2230 nM, the “Percentage Cell Growth” value (K-562; single dose 10 µM) was 5.42% and the “Percentage Cell Growth” value (786-0; single dose 10 µM) was −11.47%. For the same compound, the GI50 (786-0; [4]) was 6.42 µM, the GI50 (OVCAR-5; [4]) was 16.7 µM and the “Percentage Cell Growth” value (OVCAR-5; single dose 10 µM) was 50.59%. The “MID b, average sensitivity of all cell line of particular subpanel” value (shortened to “MID b, average sensitivity”) (Prostate cancer subpanel) was 7.83 µM, the “Selectivity, ratio MID a: MID b” value (Prostate cancer subpanel) was 1.31 and the GI50 (SNB-75; [4]) was 31.2 µM. For the same compound, the “Percentage Cell Growth” value (SNB-75; single dose 10 µM) was 18.44%, the GI50 (NCI-H23; [4]) was 7.59 µM and the “Percentage Cell Growth” value (NCI-H23; single dose 10 µM) was 21.79%. For the same compound, the GI50 (NCI-H226; [4]) was 5.43 µM, the “Percentage Cell Growth” value (NCI-H226; single dose 10 µM) was 2.42% and the GI50 (T-47D [2]; Homo sapiens, T47D, five concentrations, 48 h, SRB, read-out: GI50) was 3.47 µM. For the same compound, the “Percentage Cell Growth” value (T-47D [2]; single dose 10 µM) was 15.11%, the activity at 10 µM (HCT-116; [5]) was 4.16% and the GI50 (HCT-116; [6]) was 2890 nM. The GI50 (EKVX; [4]) was 4.77 µM, the “Percentage Cell Growth” value (EKVX; single dose 10 µM) was 53.13% and the activity at 10 µM (MDA-MB-231/ATCC; MDA-MB-231/ATCC, single dose 10 µM, read-out: Percentage Cell Growth) was 5.09%. For the same compound, the GI50 (MDA-MB-231/ATCC; MDA-MB-231, MDA-MB-31/ATCC, five concentrations, SRB, read-out: GI50) was 10.3 µM, the GI50 (OVCAR-4) was 12.3 µM and the “MID b, average sensitivity” value (Melanoma subpanel) was 8.81 µM. For the same compound, the “Selectivity, ratio MID a: MID b” value (Melanoma subpanel) was 1.16, the activity at 10 µM (CCRF-CEM; [5]) was 7.42% and the GI50 (CCRF-CEM; [6]) was 11.7 µM. The “Percentage Cell Growth” value (HOP-62; single dose 10 µM) was 32.54%, the GI50 (HOP-62; [4]) was 12.5 µM and the activity at 10 µM (RPMI-8226; [5]) was 3.28%. The GI50 (RPMI-8226; [6]) was 4.91 µM, the “Percentage Cell Growth” value (A498; single dose 10 µM) was −0.38% and the GI50 (A498; [4]) was 21.7 µM. For the same compound, the GI50 (PC-3; [4]) was 2260 nM, the “Percentage Cell Growth” value (PC-3; single dose 10 µM) was 4.49% and the activity at 10 µM (U251; U-251, 48 h, single dose 10 µM, read-out: Percentage Cell Growth) was -39.7%. The GI50 (U251; U-251, five concentrations, 48 h, SRB, read-out: GI50) was 4.3 µM, the “Percentage Cell Growth” value (HOP-92; single dose 10 µM) was −14.95% and the GI50 (HOP-92; [4]) was 6.9 µM. For the same compound, the GI50 (SN12C; [4]) was 7.28 µM, the “Percentage Cell Growth” value (SN12C; single dose 10 µM) was −71.91% and the “MID b, average sensitivity” value (Ovarian Cancer subpanel) was 11.86 µM. The “Selectivity, ratio MID a: MID b” value (Ovarian Cancer subpanel) was 0.86, the “Percentage Cell Growth” value (DU-145; single dose 10 µM) was 27.53% and the GI50 (DU-145; [4]) was 13.4 µM. For the same compound, the GI50 (SK-MEL-5; [4]) was 3.02 µM, the “Percentage Cell Growth” value (SK-MEL-5; single dose 10 µM) was −84.68% and the activity at 10 µM (MOLT-4; [5]) was -26.8%. For the same compound, the GI50 (MOLT-4; [6]) was 2520 nM, the “Percentage Cell Growth” value (HCC-2998; single dose 10 µM) was 26.92% and the GI50 (HCC-2998; [4]) was 13.8 µM. The GI50 (NCI/ADR-RES; [4]) was 13.5 µM, the “Percentage Cell Growth” value (NCI/ADR-RES; single dose 10 µM) was 17.06% and the activity at 10 µM (SW-620; [5]) was 22%. For the same compound, the GI50 (SW-620; [6]) was 4.45 µM, the GI50 ([3]; read-out: GI50 ranges against all panels of NCI60) was 2.02 to 50 µM and the GI50 ([3]; read-out: MID a, average sensitivity of all cell line (GI50-MID)) was 10.2 µM. For the same compound, the “MID b, average sensitivity” value (Leukemia subpanel) was 4.90 µM, the “Selectivity, ratio MID a: MID b” value (Leukemia subpanel) was 2.09 and the GI50 (MDA-MB-435; [4]) was 9.7 µM. For the same compound, the “Percentage Cell Growth” value (MDA-MB-435; single dose 10 µM) was 14.55%.
